We go through one compound from publication PMC11948903, “Exploring the synergy between fungal CE15 glucuronoyl esterases and xylanases for lignocellulose saccharification” (Biotechnology for Biofuels and Bioproducts, 2025).

The test system of one assay is T1, TlGE15.
T1 construct: gene tlge; mature protein with N-terminal CBM1 and CE15 domain; native signal peptide (21 of 474 residues) removed; alpha-factor secretion signal, C-terminal His6 tag kept; Pichia pastoris X33
The assay is described as follows: HPLC of released cinnamyl alcohol (UV […] nm), Michaelis-Menten fit. The assay is classed as biochemical, Trametes ljubarskyi. As to conditions: 40 °C, pH 5; substrate 0.2–5.0 mM; read-out: Kinetic parameters / KM.

A further assay deals with T2, AeGE15.
T2 construct: gene aege; mature protein with N-terminal CBM1 and CE15 domain; native signal peptide (21 of 471 residues) removed; alpha-factor secretion signal, C-terminal His6 tag kept; Pichia pastoris X33
Described as above. It is filed as biochemical, Artolenzites elegans. As to conditions: 50 °C, pH 5; substrate 0.2–5.0 mM; read-out: Kinetic parameters / KM.

For the compound `O=C(OC/C=C/c1ccccc1)[C@H]1OC(O)[C@H](O)[C@@H](O)[C@@H]1O` (stereo partly drawn) [trans−3-phenyl-2-propen-1-yl D-glucopyranosyluronate], the values for the Km in the assay with TlGE15 and in the assay on AeGE15 were 3.2 ± 0.5 mM and 3.6 ± 0.6 mM, respectively.
